Experimental data reported in patent US10583123B2, “Method for the treatment of ATG4-related disorders” (National Tsing Hua University, priority 2017, dated 2020).

Experiments:
[1] = molecular target: T1, ATG4B (Homo sapiens, UniProt Q9Y4P1); experiment: LC3-PLA2 biochemical ATG4 reporter assay; details: FIG. 2 and 4
T1 sequence (Q9Y4P1 1-393): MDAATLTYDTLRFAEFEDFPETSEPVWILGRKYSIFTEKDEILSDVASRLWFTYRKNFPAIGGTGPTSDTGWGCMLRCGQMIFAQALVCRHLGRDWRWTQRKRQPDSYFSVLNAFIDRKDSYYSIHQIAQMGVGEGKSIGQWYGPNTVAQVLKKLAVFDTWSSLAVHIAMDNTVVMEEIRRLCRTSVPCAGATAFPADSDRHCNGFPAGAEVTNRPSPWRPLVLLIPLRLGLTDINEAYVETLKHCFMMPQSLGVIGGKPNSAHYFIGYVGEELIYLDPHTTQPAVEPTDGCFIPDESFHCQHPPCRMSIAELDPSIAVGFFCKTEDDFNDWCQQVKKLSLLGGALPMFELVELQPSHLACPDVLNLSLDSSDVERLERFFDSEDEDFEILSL
From the text: (§1) Quantitative results are shown in each panel (n=4). […] Bar: 100 μm.

[2] = tested on: HCT116 cells; experiment: FACS cell cycle distribution, subG1 population; details: Dox 1 μM, 24 h
[3] = tested on: H4, HCT116 and MDA-MB-231 cells; experiment: Cell viability assay (CellTiter-Glo, cellular impedance); assay type: cell-based, human
Method: Cells were seeded into a 384-well plate overnight and treated with various drugs for 24 h. CellTiter-Glo (Promega, Madison, Wis., USA) was subsequently added to the treated cells, and the luminescence was read using a Fluoroskan Ascent FL reader (Thermo Fisher Scientific). Alternatively, the cell viability was monitored with an impedance-based instrument system (iCELLigence, ACEA Biosciences) for live cells. Briefly, H4 cells, HCT116 cells and MDA-MB-23 cells (4×10^4 cells/well) were seeded into electronic plates (E-Plates L8, ACEA Biosciences) with 400 μl of DMEM that contained 10% FBS and incubated for 30 h. […] The cellular impedance was periodically measured every 15 minutes until 80 h.
The cell viability was accessed with CellTiter-Glo.

[4] = tested on: HCT116 cells; experiment: Caspase-3 activation (Caspase-Glo 3/7, immunoblotting of caspase-3 and PARP); assay type: cell-based, human; details: for caspase-3/7 activity and cleavage of caspase-3 and PARP: cells exposed to Dox (1 μM) alone or co-treated with tioconazole (40 μM)
From the text: The cell lysates were used for immunoblotting with antibodies against the primary antibodies against ATG4B (A2981), LC3 (L7543), and ACTB (β-actin, A5441) (all purchased from Sigma-Aldrich). […] The membrane was scanned and analyzed for the protein expression level with the ChemiDoc XRS Imaging System (Bio-Rad).

[5] = molecular target: T1, ATG4B; experiment: ATG4B reporter yeast cell-based assay; details: ATG4 reporter yeast cells, FIG. 2
Method: as §1
FIGS. 55-58 show the characterization of yeast based ATG4B reporter assay for hts. (FIG. 55) Two-fold serial titrated yeast that harbored the LC3 reporter with wild type ATG4B (WT) or catalytic mutant (C74A) expression vector and reporter vector were seeded into a 384-well plate for 24 or 48 h. The substrate of […] X-gal (80 μg/ml) was included in the SD medium for the colorimetric assay. (FIG. 56) Beta-Glo was added into each well as (A) at 24 or 48 h to optimize the yeast concentration for the luminescent substrate. (FIG. 57) Yeast that harbored the wild type (WT) ATG4B and catalytic mutant (C74A) were used to determine the ratio of signal (WT)/background (C74A) and compare the sensitivity between the colorimetric and luminescent substrates. (FIG. 58) […] of yeast reporter cells (1.5×10^4 cells/ml) as previously described were seeded into a 384-well white plate for 24 h. Ten μl of the luminescent substrate Beta-Glo was added to each well, and the luminescent signal was read to determine the ATG4B activity. The luminescent signal between the wild type (WT) ATG4B and catalytic mutant (C/A) was used to determine the assay robustness (Z′ factor: 0.78).

[6] = molecular target: T1, ATG4B; details: ATG4B 1 nM, 500 nM GABARAPL2-PLA2, 1 h, anti-Myc
Method: (§2) The fluorescence intensity was kinetically monitored for 1 h to determine the ATG4 activity at room temperature with excitation and emission wavelengths of 485 and 530 nm, respectively.
(§3) For cleavage of GABARAPL2-PLA2 and caspase-3 activation, reaction mixtures or cell lysates were immunoblotted with antibodies against Myc (Roche, 11667149001), caspase-3 (Cell Signaling, 9661), PARP (Cell Signaling, 9532) and GAPDH (Cell Signaling, 5174).
(§4) (FIG. 5) ATG4B (1 nM) or (FIG. 6) ATG4A (50 nM) was mixed with 10-fold serially diluted Tc and 500 nM GABARAPL2-PLA2 for 1 h. The cleavage of GABARAPL2-PLA2 was validated with immunoblotting using an anti-Myc antibody.

[7] = molecular target: T2, ATG4A (Homo sapiens, UniProt Q8WYN0); details: ATG4A 50 nM, 500 nM GABARAPL2-PLA2, 1 h, anti-Myc
T2 sequence (Q8WYN0 whole entry): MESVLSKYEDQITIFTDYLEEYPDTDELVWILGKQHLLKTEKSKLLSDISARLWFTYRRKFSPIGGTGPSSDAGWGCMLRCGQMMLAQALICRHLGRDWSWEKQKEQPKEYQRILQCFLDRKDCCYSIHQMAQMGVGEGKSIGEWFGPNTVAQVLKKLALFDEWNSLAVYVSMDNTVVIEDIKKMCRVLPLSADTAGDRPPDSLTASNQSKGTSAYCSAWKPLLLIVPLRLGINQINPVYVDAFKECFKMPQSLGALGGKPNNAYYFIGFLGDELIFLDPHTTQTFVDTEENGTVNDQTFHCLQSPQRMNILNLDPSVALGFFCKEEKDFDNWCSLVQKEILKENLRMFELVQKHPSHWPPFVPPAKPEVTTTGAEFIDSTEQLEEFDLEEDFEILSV
Method: as §2, §3, §4

[8] = molecular target: ATG4 (Homo sapiens, UniProt Q9Y4P1); details: HEK293T cells, FIG. 8
Method: For the ATG4 cleavable reporter assay in mammalian cells, the N-terminus (NLuc, residues 2-416) and C-terminus (CLuc, residues 398-550) of the luciferase gene were constructed in the expression vector pcDNA3.0. […] The luciferase activity was measured via One-Glo (Promega) according to the instruction manual. The non-cleavable mutant G120A was used to normalize the luminescent signal and determine the ATG4 activity.
Quantitative results are shown in each panel (n=4). […] (FIG. 7) The expression vector that encoded ATG4-cleavable luciferase was constructed with LC3 and a luciferase chimera gene, as shown in the schematic diagram (upper panel). HEK293T cells were transfected with scramble siRNA (siCtrl) or siRNA against ATG4B (siATG4B) for 48 h, followed by transfection with the ATG4 reporter vector for 24 h. The luciferase activity was measured with a luminescent reader (n=6), and the knockdown efficiency of ATG4B was determined using immunoblotting. […] The cleavage of LC3 and luciferase chimera protein by ATG4 in cells treated with Tc or untreated cells was verified via immunoblotting (upper panel).
Briefly, LC3 was constructed to split N-terminal and C-terminal luciferase in a mammalian expression vector, as indicated (FIG. 7).

[9] = molecular target: ATG4B and LC3 complex (Homo sapiens, UniProt Q9Y4P1); details: HEK293T cells, flow cytometry
Method: The plasmids (1 μg/well) were transfected with lipofectamine 2000 transfection reagent (Life Technologies, 11668-027) into HEK293T cells in a 6-well plate for 24 h. The cells were imaged via fluorescence microscopy or harvested to quantify the fluorescence intensity via a flow cytometer (Becton Dickinson).
After overnight culture, the cells were fixed to observe Venus complementary under fluorescence microscopy (right panel). […] (FIG. 10) The transfected cells were treated with Tc for 8 h and fixed for flow cytometry to quantify Venus fluorescence using GFP as a counter assay.
The cells were fixed to determine Venus complementation with flow cytometry and quantitated with FlowJo. HEK 293T cells transfected with or without GFP expression vector were used as the blank and counter controls, respectively.

[10] = tested on: H4 cells that stably express GFP-LC3; details: tioconazole 8 h
Method: The treated cells were fixed to observe the GFP-LC3 puncta via fluorescence microscopy. For protein colocalization, the H4 stable cells previously described were transfected with 1 μg plasmids Cherry tagged ATG4B or Lamp1-RFP (Addgene, 1817) for 36 h using Lipofectamine 2000 (Invitrogen).
(FIG. 17) Human glioma H4 cells that stably express GFP-LC3 were transfected with 5 nM non-targeting siRNA (Ctrl) or siRNA against ATG4 family members (ATG4) for 48 h, and the knockdown efficiency of ATG4 was verified with real time PCR. (FIG. 18) The knockdowned cells were fixed for observation via fluorescence microscopy, and the number of GFP-LC3 puncta is quantified in the right panel. […] The autophagy inhibitor CQ was used as a positive control. […] Representative autophagic vacuoles (AVs) are shown. […] (FIG. 22) The numbers of AVs for each optical section (9 m^2) are quantified (n=8). (FIG. 23) HCT116 cells expressing GFP-LC3 and RFP-Lamp1 were treated with Tc for 6 h and fixed to observe colocalization of GFP-LC3 and RFP-Lamp1 with confocal microscopy. […] The colocalization coefficients of images were quantified by the Ziess LSM 710 Software and are shown in the right panel. […] Cells were harvested for immunoblotting using antibodies against LC3, ATG4B or ACTB, and autophagy flux was quantified in untreated cells and cells treated with CQ based on changes in LC3-II. […]

[11] = tested on: HCT116 cells; details: Tc 40 μM, versus untreated cells
Method: HCT116 cells treated with T2 (40 μM), CQ (20 μM) for 8 h were rinsed with PBS once and fixed in 2% glutaraldehyde at room temperature for 30 min. The cells were harvested to postfix with 1% osmium tetroxide and stained with 2% uranyl acetate (Agar Scientific) at room temperature for 1 h. The cell pellets were embedded to obtain 80 nm sections with a diamond knife. The sections were stained with 2% uranyl acetate and 0.3% lead citrate (Agar Scientific) and imaged with a JEM1400 PLUS transmission electron microscope (JEOL).
The autophagy inhibitor CQ was used as a positive control. Bar: 20 μm. […] Representative autophagic vacuoles (AVs) are shown. Arrowhead: autophagosome. Bar: 200 nm. (FIG. 22) The numbers of AVs for each optical section (9 m^2) are quantified (n=8).

[12] = tested on: HCT116 and H4 cells expressing GFP-LC3 and RFP-Lamp1; details: Tc 6 h, confocal microscopy
Method: Human colorectal cancer HCT116 cells, glioblastoma H4 cells and breast cancer MDA-MB-231 from the ATCC were cultured in Dulbecco's modified Eagle's medium (DMEM) (Invitrogen, 12100-046) supplemented with 10% HyClone fetal bovine serum, penicillin (100 U/ml), and streptomycin (100 mg/ml). […] The treated cells were harvested to determine cell viability, apoptosis and immunoblotting.
The treated cells were fixed to observe the GFP-LC3 puncta via fluorescence microscopy.
(FIG. 23) HCT116 cells expressing GFP-LC3 and RFP-Lamp1 were treated with Tc for 6 h and fixed to observe colocalization of GFP-LC3 and RFP-Lamp1 with confocal microscopy. GFP-LC3 that had colocalized with or was surrounded by RFP-Lamp1 was identified as fusion between autophagosomes and lysosomes. The colocalization coefficients of images were quantified by the Ziess LSM 710 Software and are shown in the right panel. Bar: 20 m.

[13] = tested on: H4, HCT116 or MDA-MB-231 cells
Method: The cells were briefly rinsed in PBS (Biological Industries, 02-023-1) and lysed with RIPA buffer (1% NP40 [MDBio, 101-9016-45-9], 50 mM Tris HCl, pH 7.5, 150 mM NaCl, 0.25% sodium deoxycholate [Sigma-Aldrich, D6750], 1% sodium dodecyl sulfate [SDS; Calbiochem, 428015], and protease inhibitor cocktail [Roche, 11873580001]). The cell lysates were used for immunoblotting with antibodies against the primary antibodies against ATG4B (A2981), LC3 (L7543), and ACTB (β-actin, A5441) (all purchased from Sigma-Aldrich). The differential accumulations of LC3 in cells with and without CQ were used to quantitate the autophagic flux (Mizushima et al., 2010). […] The proteins were probed with an HRP-labeled secondary antibody (Santa Cruz, sc-2004 or sc-2005) and detected with an ECL reagent. The membrane was scanned and analyzed for the protein expression level with the ChemiDoc XRS Imaging System (Bio-Rad).
The autophagy inhibitor CQ was used as a positive control. […] (FIG. 24) HCT16 cells were transfected with siRNA (5 nM) for 66 h and then treated with CQ (20 μM) for 2 h. Cells were harvested for immunoblotting using antibodies against LC3, ATG4B or ACTB, and autophagy flux was quantified in untreated cells and cells treated with CQ based on changes in LC3-II. […] (FIG. 26) The autophagic flux was quantified as described in FIG. 25.

[14] = tested on: HCT116 and H4 cells; details: Dox-treated cells, Tc 40 μM, JC-1
Method: For the MMP analysis, the cells were treated with JC-1 (5,5,6,6-tetrachloro-1,1,3,3-tetraethyl-benzimidazolylcarbocyanine iodide, Invitrogen) at 37° C. for 20 min prior to harvesting.

[15] = tested on: HCT116 spheroids; details: 48 h
Method: The cells (4000 cells/well) were seeded into an ultra-low attachment, 96-well plate (Costar®, USA) and grown overnight to form spheroid cells. […] The spheroid cells were stained with Calcein AM (1 μM) and Ethidium homodimer-1 (EthD-1, 2 μM) (LIVE/DEAD® Viability/Cytotoxicity Kit, ThermoFisher Scientific) for 30 minutes. The live (green) and dead (red) spheroid cells were imaged via fluorescence microscopy and quantitated using a Fluoroskan Ascent FL reader (Thermo Fisher Scientific) with excitation at 485 nm and emissions at 530 nm and 645 nm for calcein AM and EthD-1, respectively.
(FIG. 44) HCT116 cells were cultured in an ultra-low attachment dish for 24 h to form spheres. […] Scale bar: 400 μm. (FIG. 45) The relative sphere volume was quantified using DMSO-treated cells as the normalized control. (FIG. 46) HCT116 sphere-forming cells treated as (A) were lysed to measure ATP levels and assess cell viability. […] The viable and dead spheres were imaged with a LIVE/DEAD staining kit. The knockdown efficiency of ATG genes was verified by immunoblotting (left panel) (FIG. 48) The red fluorescence of the spheres in FIG. 47 was quantitated with a reader to assess the dead cell population (n=6).

[16] = tested on: HCT116 xenograft tumors
Method: Human colorectal cancer HCT116 cells (2×10^6) were mixed with Matrigel (1:1) and subcutaneously implanted into six-week old immunodeficient mice (nu/nu, female). […] The tumor size in each mouse was measured every 3 to 4 days with vernier calipers, and the tumor volumes were calculated using the formula (larger diameter)×(smaller diameter)2×7π/6. Tumors were further cut from euthanized mice and embedded in paraffin. […] The protein levels in the tumor sections were determined using the UltraVision™ Quanto Detection System HRP DAB (Thermo Scientific) and observed under microscopy.
The tumor volume (circle) in each mouse was measured every 3 to 4 days (5 per group). The p values were determined with an ANOVA. […] The quantified results were obtained from at least 1500 cells and are shown in the right panel. p>0.05; *p<0.05; **p<0.01; ***p<0.001.

[17] = molecular target: T1, ATG4B; experiment: biochemical
Method: as §2, §3, §4

[18] = molecular target: T2, ATG4A; experiment: biochemical
Method: as §2, §3, §4

[19] = tioconazole-treated mice, immunohistochemistry

## Clc1ccc(COC(Cn2ccnc2)c2ccc(Cl)cc2Cl)c(Cl)c1 (stereo not shown) [miconazole]
[1]
  inhibitory effect on ATG4B compared with tioconazole: failed to exhibit as good inhibitory effect on ATG4B as tioconazole
[2]
  cell death in combination with Dox (subG1 proportion): less potently synergized with Dox

## z-VAD-fmk
[3]; zVAD-FMK 50 μM pretreatment, Tc 40 μM, Dox 1 μM 24 h
  apoptotic effects of tioconazole and Dox after pretreatment (cell viability): rescued the apoptotic effects
[4]; zVAD-FMK 50 μM, cells treated with tioconazole and Dox
  caspase-3 activation after pretreatment: blocked caspase-3 activation

## Clc1ccc(C(Cn2ccnc2)OCc2ccsc2Cl)c(Cl)c1 (stereo not shown) [tioconazole]
[5]
  inhibition in the yeast cell-based assay: strong inhibition
[3]; cancer cell lines, tioconazole 40 μM combined with starvation or chemotherapeutic drugs
  cytotoxic effects of starvation and chemotherapy: enhanced the cytotoxic effects of starvation and chemotherapy
[3]; cancer cell lines, tioconazole 40 μM, cellular ATP levels or impedance
  cell viability: significantly reduced the cell viability
[4]
  caspase-3/7 activity and cleavage of caspase-3 and PARP: significantly elevated
[6]
  cleavage of GABARAPL2-PLA2 by ATG4B (immunoblotting): blocked the cleavage
[7]
  cleavage of GABARAPL2-PLA2 by ATG4A (immunoblotting): blocked the cleavage
[8]
  luciferase activity in ATG4 reporter cells: increased the luciferase activity
[8]; immunoblotting
  cleavage of chimera luciferase in reporter cells: attenuated the cleavage of chimera luciferase
[9]; Tc 8 h
  fluorescence from formation of the ATG4B and LC3 complex (BiFC): reduced the fluorescence
[9]
  GFP fluorescence (counter assay): did not affect GFP fluorescence
[10]
  GFP-LC3-II puncta: accumulation of GFP-LC3-II puncta
[11]
  number of autophagosomes (TEM): increased
[12]
  co-localization of LC3 and LAMP1: decreased the co-localization of LC3 and LAMP1
[13]; Tc 6 h, with or without CQ 20 μM
  autophagic flux (LC3-II accumulation with and without CQ): significantly attenuated autophagic flux
[13]; cancer cells, starvation or CPT/Dox 24 h, immunoblotting
  LC3-II turnover and SQSTM1 degradation triggered by starvation and chemotherapeutic drugs: blocked LC3-II turnover and SQSTM1 degradation
[14]
  mitochondrial membrane potential (MMP): reduction of mitochondrial membrane potential
[15]; HCT116 spheroids, Tc 40 μM
  size of tumor spheroids: significantly decreased the size of tumor spheroids
[15]; Tc 40 μM with Dox 1 μM
  cytotoxicity of Dox in spheroids (ATP levels, number of dead cells): enhanced the cytotoxicity of Dox
[15]; Tc 40 μM, Dox 1 μM, LIVE/DEAD staining
  Dox-induced cell death in spheres with scramble shRNA and shRNA against ATG4B: enhanced Dox-induced cell death
[16]; Tc 60 mg/kg intraperitoneal every other day, day 21
  xenograft tumor weight: reduced the xenograft tumor weight
[16]; Tc 60 mg/kg with Dox 1 mg/kg intraperitoneal every other day
  sensitivity of xenograft tumors to Dox: sensitized xenograft tumors to Dox
[16]; [19]
  levels of cleaved caspase-3 in tumor tissues: significantly increased
  number of LC3 puncta in tumor tissues: significantly increased
[17]
  IC50: 1800 ± 160 nM
[18]
  IC50: 1300 ± 180 nM
[2]
  cell death in combination with Dox (subG1 proportion): synergistically increased cell death

## COc1cccc2c1C(=O)c1c(O)c3c(c(O)c1C2=O)C[C@@](O)(C(=O)CO)C[C@@H]3O[C@H]1C[C@H](N)[C@H](O)[C@H](C)O1 [Dox, Doxorubicin]
[4]
  caspase-3/7 activity and cleavage of caspase-3 and PARP: significantly elevated
